As a reminder, the IC50 is the point on the concentration scale where inhibition reaches its midpoint. High values mean weaker potency, low ones greater potency. One may read the melting point as the temperature of the solid-liquid transition.

This note sets out measurements from patent publication US20100120730A1, “6-BENZYL-2,3,4,7-TETRAHYDRO-INDOLO [2,3-C] QUINOLINE COMPOUNDS USEFUL AS PDE5 INHIBITORS” (NYCOMED GmbH, priority 2007, published 2010).

In one series the target is T1, human PDE5 (Homo sapiens, UniProt O76074).
T1 construct: from tissue; host or cells: human platelets from fresh donor blood (10,000 g supernatant of sonified platelets)
Briefly: Inhibition of PDE5 activity (modified SPA test, human platelet lysate). Type of series: biochemical. Particulars: PDE5-containing human platelet lysate, 0.5 μM cGMP substrate, 37° C. The method, then:
As a source for human PDE5, platelets were used. For that purpose, 150 ml fresh blood from human donors anticoagulated with citrate [final concentration 0.3% (w/v)] was centrifuged at 200 g for 10 min to obtain the so-called platelet-rich-plasma (PRP) as a supernatant. 1/10 volume of ACD solution (85 mM Na3-citrate, 111 mM D-glucose, 71 mM citric acid, pH 4.4) was added to 9/10 volume of PRP. After centrifugation (1,400 g, 10 min) the cell pellet was resuspended in 3 ml homogenization buffer (NaCl 140 mM, KCl 3.8 mM, EGTA 1 mM, MgCl2 1 mM, Tris-HCl 20 mM, beta-mercaptoethanol 1 mM, pH 8.2) plus protease-inhibitor mix giving rise to the final concentrations of 0.5 mM Pefablock (Roche), 10 μM Leupeptin, 5 μM Trypsininhibitor, 2 mM Benzamidin and 10 μM Pepstatin A. The suspension was sonified and thereafter centrifuged for 15 min at 10,000 g. The resulting supernatant (platelet lysate) was used for enzymatic testings.
PDE5A1 activity is inhibited by the compounds of the invention in a modified SPA (scintillation proximity assay) test, supplied by Amersham Biosciences (see procedural instructions “phosphodiesterase [3H]cAMP SPA enzyme assay, code TRKQ 7090”), carried out in 96-well microtitre plates (MTP's). The test volume is 100 μl and contains 20 mM Tris buffer (pH 7.4), 0.1 mg of BSA (bovine serum albumin)/ml, 5 mM Mg^2+, 1 μM motapizone, 10 nM PDE2 inhibitor BAY-60-7550, 0.5 μM cGMP (including about 50,000 cpm of [3H]cGMP as a tracer), 1 μl of the respective compound dilution in dimethylsulfoxide (DMSO) and sufficient PDE5-containing platelet lysat (10,000×g supernatant, see above) to ensure that 10-20 wt % of the cGMP is converted under the said experimental conditions. […] After a preincubation of 5 min at 37° C., the reaction was started by adding the substrate (cGMP) and the assay was incubated for a further 15 min; after that, it was stopped by adding SPA beads (50 μl). In accordance with the manufacturer's instructions, the SPA beads had previously been resuspended in water, but were then diluted 1:3 (v/v) in water; the diluted solution also contains 3 mM 8-methoxymethyl-3-isobutyl-1-methylxanthine (IBMX) to ensure a complete PDE activity stop. After the beads have been sedimented (>30 min), the MTP's are analyzed in commercially available luminescence detection devices. The corresponding IC50 values of the compounds for the inhibition of PDE activity are determined from the concentration-effect curves by means of non-linear regression.

Regarding `O=C1CCCc2nc(Cc3ccccc3)c3[nH]c4ccccc4c3c21` [Example 3, 6-Benzyl-2,3,4,7-tetrahydro-indolo[2,3-c]quinolin-1-one], the melting point is 205 °C. This compound gave an IC50 against human PDE5 of 19.5 nM.

Compound `COc1ccc(Cc2nc3c(c4c2[nH]c2ccccc24)CCC(C)C3)cc1` (stereo not shown) [Example 4, 6-(4-Methoxy-benzyl)-3-methyl-2,3,4,7-tetrahydro-1H-indolo[2,3-c]quinoline] yielded a melting point of 186 °C. This compound also showed an IC50 against human PDE5 of 3.39 nM.

Regarding `CC1(C)CC(=O)c2c(nc(Cc3ccc(OC(F)(F)F)cc3)c3[nH]c4ccccc4c23)C1` [Example 11, 3,3-Dimethyl-6-(4-trifluoromethoxy-benzyl)-2,3,4,7-tetrahydro-indolo[2,3-c]quinolin-1-one], the melting point was 141 to 143 °C. The IC50 against human PDE5 was 135 nM.

Regarding `CCOc1ccc(Cc2nc3c(c4c2[nH]c2ccccc24)C(=O)CC(C)(C)C3)cc1` [Example 12, 6-(4-Ethoxy-benzyl)-3,3-dimethyl-2,3,4,7-tetrahydro-indolo[2,3-c]quinolin-1-one], the melting point was 179 to 181 °C. For the same compound, the midpoint of inhibition against human PDE5, the IC50, lay at 26.9 nM.

In the case of `CC(C)c1ccc(Cc2nc3c(c4c2[nH]c2ccccc24)C(=O)CC(C)(C)C3)cc1` [Example 14, 6-(4-Isopropyl-benzyl)-3,3-dimethyl-2,3,4,7-tetrahydro-indolo[2,3-c]quinolin-1-one], the melting point fell in the range of 153 to 155 °C. On human PDE5, this compound had an IC50 of 347 nM.

`COc1ccc(Cc2nc3c(c4c2[nH]c2ccccc24)C(=O)CC(C)(C)C3)cc1Cl` [Example 15, 6-(3-Chloro-4-methoxy-benzyl)-3,3-dimethyl-2,3,4,7-tetrahydro-indolo[2,3-c]quinolin-1-one] yielded a melting point of 209 to 211 °C. On human PDE5, this compound gave an IC50 of 6.31 nM.

The compound `COc1ccc(Cc2nc3c(c4c2[nH]c2ccccc24)C(=O)CC(C)C3)cc1` (stereo not shown) [Example 17, 6-(4-Methoxy-benzyl)-3-methyl-2,3,4,7-tetrahydro-indolo[2,3-c]quinolin-1-one] returned a melting point of 102 °C. Moreover, 3.16 nM corresponded to half-maximal inhibition against human PDE5 (IC50).

With `O=C1CCCc2nc(Cc3ccc4c(c3)OCO4)c3[nH]c4ccccc4c3c21` [Example 18, 6-Benzo[1,3]dioxol-5-ylmethyl-2,3,4,7-tetrahydro-indolo[2,3-c]quinolin-1-one], the melting point was 194 to 197 °C. This compound had an IC50 against human PDE5 of 3.63 nM.

In turn, `CC1(C)CC(=O)c2c(nc(Cc3ccc(Cl)cc3)c3[nH]c4ccccc4c23)C1` [Example 20, 6-(4-Chloro-benzyl)-3,3-dimethyl-2,3,4,7-tetrahydro-indolo[2,3-c]quinolin-1-one] yielded a melting point of 205 to 207 °C. Besides, on human PDE5, the midpoint of inhibition, the IC50, lay at 10.2 nM.

As for `CC1(C)CC(=O)c2c(nc(Cc3cccc(Br)c3)c3[nH]c4ccccc4c23)C1` [Example 21, 6-(3-Bromo-benzyl)-3,3-dimethyl-2,3,4,7-tetrahydro-indolo[2,3-c]quinolin-1-one], the melting point was in the range of 215 to 219 °C. The compound also had an IC50 against human PDE5 of 126 nM.

For `CC1(C)CC(=O)c2c(nc(Cc3cc(F)cc(F)c3)c3[nH]c4ccccc4c23)C1` [Example 22, 6-(3,5-Difluoro-benzyl)-3,3-dimethyl-2,3,4,7-tetrahydro-indolo[2,3-c]quinolin-1-one], the melting point was in the range of 204 to 208 °C. The same compound showed an IC50 against human PDE5 of 15.5 nM.

For the compound `COc1ccc(Cc2nc3c(c4c2[nH]c2ccccc24)C(=O)CC(C)(C)C3)cc1F` [Example 23, 6-(3-Fluoro-4-methoxy-benzyl)-3,3-dimethyl-2,3,4,7-tetrahydro-indolo[2,3-c]quinolin-1-one], the melting point is 192 to 195 °C. In addition, the IC50 at human PDE5 was 1.26 nM.

`CC1(C)CC(=O)c2c(nc(Cc3ccc(F)c(F)c3)c3[nH]c4ccccc4c23)C1` [Example 24, 6-(3,4-Difluoro-benzyl)-3,3-dimethyl-2,3,4,7-tetrahydro-indolo[2,3-c]quinolin-1-one] returned a melting point of 204 to 207 °C. The midpoint of inhibition against human PDE5, the IC50, lay at 14.1 nM.

Regarding `Cc1ccc(Cc2nc3c(c4c2[nH]c2ccccc24)C(=O)CC(C)(C)C3)cc1` [Example 25, 3,3-Dimethyl-6-(4-methyl-benzyl)-2,3,4,7-tetrahydro-indolo[2,3-c]quinolin-1-one], the melting point fell in the range of 182 to 184 °C. In addition, on human PDE5, the midpoint of inhibition, the IC50, lay at 2.95 nM.

For the compound `O=C1CCCc2nc(Cc3ccc([N+](=O)[O-])cc3)c3[nH]c4ccccc4c3c21` [Example 26, 6-(4-Nitro-benzyl)-2,3,4,7-tetrahydro-indolo[2,3-c]quinolin-1-one], the melting point fell in the range of 138 to 140 °C. The compound further gave a half-inhibitory concentration (IC50) against human PDE5 of 355 nM.

For `COc1ccc(Cc2nc3c(c4c2[nH]c2ccccc24)C(=O)CC(C)(C)C3)c(F)c1` [Example 27, 6-(2-Fluoro-4-methoxy-benzyl)-3,3-dimethyl-2,3,4,7-tetrahydro-indolo[2,3-c]quinolin-1-one], the melting point lay within 138 to 140 °C. For the same compound, the IC50 on human PDE5 was 2.24 nM.

The compound `CC1(C)CC(=O)c2c(nc(Cc3ccc(F)cc3)c3[nH]c4ccccc4c23)C1` [Example 28, 6-(4-Fluoro-benzyl)-3,3-dimethyl-2,3,4,7-tetrahydro-indolo[2,3-c]quinolin-1-one] had a melting point of 200 to 204 °C. Besides, 18.2 nM corresponded to half-maximal inhibition at human PDE5 (IC50).

Consider `COc1ccc(Cc2nc3c(c4c2[nH]c2ccccc24)C(=O)CCC3)cc1F` [Example 29, 6-(3-Fluoro-4-methoxy-benzyl)-2,3,4,7-tetrahydro-indolo[2,3-c]quinolin-1-one], for which the melting point was 228 to 230 °C. At human PDE5, this compound had an IC50 of 1.26 nM.

With `COc1ccc(Cc2nc3c(c4c2[nH]c2ccccc24)CCCC3)cc1F` [Example 30, 6-(3-Fluoro-4-methoxy-benzyl)-2,3,4,7-tetrahydro-1H-indolo[2,3-c]quinoline], the melting point fell in the range of 118 to 120 °C. Moreover, the IC50 against human PDE5 is 3.98 nM.

Turning to `COc1ccc(Cc2nc3c(c4c2[nH]c2ccccc24)C(=O)CC(C)(C)C3)c(F)c1F` [Example 31, 6-(2,3-Difluoro-4-methoxy-benzyl)-3,3-dimethyl-2,3,4,7-tetrahydro-indolo[2,3-c]quinolin-1-one], the melting point was in the range of 199 to 200 °C. The compound also showed an IC50 at human PDE5 of 0.398 nM.

In turn, `COc1c(F)cc(Cc2nc3c(c4c2[nH]c2ccccc24)C(=O)CC(C)(C)C3)cc1F` [Example 32, 6-(3,5-Difluoro-4-methoxy-benzyl)-3,3-dimethyl-2,3,4,7-tetrahydro-indolo[2,3-c]quinolin-1-one] returned a melting point of 195 to 196 °C. The IC50 against human PDE5 is 0.191 nM.

As for `CC1(C)CC(=O)c2c(nc(Cc3cccc(F)c3)c3[nH]c4ccccc4c23)C1` [Example 34, 6-(3-Fluoro-benzyl)-3,3-dimethyl-2,3,4,7-tetrahydro-indolo[2,3-c]quinolin-1-one], the melting point is 184 to 192 °C (dec.). The same compound showed an IC50 against human PDE5 of 4.9 nM.

`CC1(C)CC(=O)c2c(nc(Cc3cccc(Cl)c3)c3[nH]c4ccccc4c23)C1` [Example 35, 6-(3-Chloro-benzyl)-3,3-dimethyl-2,3,4,7-tetrahydro-indolo[2,3-c]quinolin-1-one] returned a melting point of 206 to 209 °C. Inhibition on human PDE5 was half-maximal at 37.2 nM (IC50).
